Data taken from ChEMBL document CHEMBL1201862, “PubChem BioAssay data set” (2004).
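All cell lines were grown in 96-well plates and treated with compound for 48 hours. GI50 marks 50% less growth.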 Activity calls are given as the source filed them. Cut-off read from the data, not from the text of the source: active = GI50 up to about 1.1 µM and inactive = higher.

Legend:
Assay in all cases: growth of human tumour cells (NCI), 48 h
[1] = tested on: UACC-62
[2] = tested on: TK-10
[3] = tested on: ACHN
[4] = tested on: SF-268
[5] = tested on: SNB-75
[6] = tested on: KM12
[7] = tested on: U-251
[8] = tested on: SF-295
[9] = tested on: SN12C
[10] = tested on: OVCAR-3
[11] = tested on: EKVX
[12] = tested on: CCRF-CEM
[13] = tested on: RXF 393
[14] = tested on: LOX IMVI
[15] = tested on: COLO 205
[16] = tested on: K562
[17] = tested on: NCI-H23
[18] = tested on: A498

Measured: GI50

C/C=C/CC(C)[C@@H](O)[C@H](NC)C(=O)O (stereo partly drawn)
inactive: [1] > 100 µM | [2] > 100 µM | [3] > 100 µM | [4] > 100 µM | [5] > 100 µM | [6] > 100 µM | [7] > 100 µM | [8] > 100 µM | [9] > 100 µM | [10] > 100 µM | [11] > 100 µM | [12] > 100 µM | [13] > 100 µM | [14] > 100 µM | [15] > 100 µM | [16] > 100 µM | [17] > 100 µM

Cc1ccc(NC(=O)CCC(=O)C(C#N)c2ccccc2)cc1C (stereo not drawn)
inactive: [1] > 100 µM | [2] > 100 µM | [3] > 100 µM | [4] > 100 µM | [6] > 100 µM | [7] > 100 µM | [8] > 100 µM | [9] > 100 µM | [10] > 100 µM | [11] > 100 µM | [12] > 100 µM | [14] > 100 µM | [15] > 100 µM | [16] > 100 µM | [18] > 100 µM | [17] > 100 µM

Cc1cc2c(cc1C)[n+]([O-])c(C(=O)/C=C/c1ccccc1Cl)c(C)[n+]2[O-]
inactive: [1] 18.3 µM | [2] 25.4 µM | [3] 24.5 µM | [4] 27.9 µM | [5] 19.2 µM | [6] 31.8 µM | [7] 28.2 µM | [8] 32.1 µM | [9] 33 µM | [10] 28.7 µM | [11] 49.2 µM | [12] 37.2 µM | [14] 31 µM | [15] 20.7 µM | [16] 37.9 µM | [18] 36.6 µM | [17] 19.3 µM

Nc1c(Cl)ncnc1NCCCNc1ncnc(Cl)c1N
inactive: [1] > 100 µM | [2] > 100 µM | [3] > 100 µM | [4] > 100 µM | [6] > 100 µM | [7] > 100 µM | [8] > 100 µM | [9] > 100 µM | [10] > 100 µM | [11] > 100 µM | [12] > 100 µM | [13] > 100 µM | [14] > 100 µM | [15] > 100 µM | [16] > 100 µM | [18] > 100 µM | [17] 53.8 µM

O=C(N/C(=C\c1ccc([N+](=O)[O-])cc1)c1nc2ccccc2[nH]1)c1ccccc1
inactive: [1] > 100 µM | [2] > 100 µM | [3] > 100 µM | [4] > 100 µM | [6] > 100 µM | [7] 63.7 µM | [8] > 100 µM | [9] > 100 µM | [11] > 100 µM | [13] > 100 µM | [15] > 100 µM | [16] > 100 µM | [18] > 100 µM | [17] > 100 µM

O=S1(=O)OCCOS(=O)(=O)C1Br
inactive: [1] 52.2 µM | [2] > 100 µM | [4] > 100 µM | [5] > 100 µM | [6] > 100 µM | [8] 86.5 µM | [9] > 100 µM | [10] > 100 µM | [12] > 100 µM | [15] > 100 µM | [16] > 100 µM | [18] > 100 µM | [17] > 100 µM

COc1cc(C2C(Cl)C(=O)N2n2cnc3ccccc3c2=O)cc(OC)c1OC (stereo not drawn)
inactive: [1] 37.9 µM | [2] > 100 µM | [3] > 100 µM | [4] > 100 µM | [5] 65.5 µM | [6] 41.9 µM | [7] > 100 µM | [8] > 100 µM | [9] > 100 µM | [10] > 100 µM | [11] 92 µM | [12] 82 µM | [13] > 100 µM | [14] 57.4 µM | [15] > 100 µM | [16] 20.3 µM | [17] > 100 µM

CN1C(=O)CCC1(O)C1C=CC=CC1 (stereo not drawn)
inactive: [1] > 100 µM | [2] > 100 µM | [3] > 100 µM | [4] > 100 µM | [5] > 100 µM | [6] > 100 µM | [7] > 100 µM | [8] > 100 µM | [9] > 100 µM | [10] > 100 µM | [12] > 100 µM | [13] > 100 µM | [14] > 100 µM | [15] > 100 µM | [16] > 100 µM | [17] > 100 µM

CC(=O)Nc1ccc(-c2nnc(SCC(=O)Nc3cccc([N+](=O)[O-])c3)o2)cc1
inactive: [1] 11.5 µM | [2] 23.6 µM | [3] 15.4 µM | [4] 16.1 µM | [5] 17.8 µM | [6] 17.3 µM | [7] 14.6 µM | [8] 16.8 µM | [9] 16.1 µM | [10] 13.5 µM | [12] 9.1 µM | [13] 12.2 µM | [14] 8.77 µM | [15] 19 µM | [16] 10.3 µM | [17] 5.13 µM

CCCCCCCC(=O)OC[C@H](C[As](=O)(O)O)OC(=O)CCCCCCC
inactive: [1] 9.29 µM | [3] 10.7 µM | [4] 1.82 µM | [5] 11.1 µM | [7] 4.95 µM | [8] 14.4 µM | [9] 10.1 µM | [11] 21.1 µM | [12] 1.95 µM | [13] 3.92 µM | [15] 15.1 µM | [16] 12.7 µM | [18] 11.5 µM | [17] 14.3 µM

Cc1ccc(S(=O)(=O)OC2CSSCC2OS(=O)(=O)c2ccc(C)cc2)cc1 (stereo not drawn)
inactive: [1] 7.89 µM | [2] 15.3 µM | [3] 15.3 µM | [4] 14.7 µM | [5] 12.8 µM | [6] 14.1 µM | [7] 14 µM | [8] 16.2 µM | [9] 11.3 µM | [10] 13.3 µM | [11] 29.8 µM | [12] 4.35 µM | [13] 20.9 µM | [14] 13.8 µM | [15] 13.7 µM | [16] 14.9 µM | [17] 17.9 µM

N=C(N)SCCc1cn2ccccc2n1
inactive: [2] > 100 µM | [3] > 100 µM | [4] > 100 µM | [5] > 100 µM | [6] > 100 µM | [7] > 100 µM | [8] > 100 µM | [9] > 100 µM | [10] > 100 µM | [11] > 100 µM | [12] > 100 µM | [14] > 100 µM | [15] > 100 µM | [16] > 100 µM | [17] > 100 µM

COc1cc2c(cc1OC)C(N(C)C)C(c1ccccc1)=C2Cl (stereo not drawn)
inactive: [2] 37.5 µM | [5] 20 µM | [6] 23.2 µM | [7] 16.6 µM | [8] 22.8 µM | [9] 18.7 µM | [10] 21.3 µM | [12] 60.5 µM | [13] 15.5 µM | [14] 17.4 µM | [15] 17.9 µM | [16] 27.9 µM | [18] 22.5 µM | [17] 16.9 µM
